# According to patent US8080377B2, “Method for confirming the exposure on chrysene” (Korea Institute of Science and Technology, priority 2008, dated 2011):
# Experiments:
# Assay type in all cases: cell-based, human
# [1] = Cytotoxicity assay (MTT assay), chrysene treated 48 hours; settings: human, HepG2 cells; HepG2, MTT, 48 hours; read-out: IC20 (concentration exhibiting 80% cell survival rate)
# Procedure: (§1) The human hepatoma cell line HepG2 (Korean Cell Line Bank) was cultured in DMEM (Gibco-BRL, USA) supplemented with 10% FBS in 100 mm dish until it grew 80%. The present inventors selected chrysene (Sigma-Aldrich, USA) among polycyclic aromatic hydrocarbons known to have carcinogenicity, based on the previous studies and reports. Chrysene was dissolved in DMSO. The concentration of vehicle was up to 0.1% in every experiment.
# (§2) MTT assay with the HepG2 cell line was performed according to the method of Mossman et al. (J. Immunol. Methods, 65: 55-63, 1983). The cells were inoculated in a 24-well plate containing DMEM at the concentration of 4×10^5 cells/well, to which chrysene dissolved in DMSO was treated. 48 hours later, MTT (3-[4,5-dimethylthiazol-2-yl]-2,5-diphenyltetra zolium bromide) was added at the concentration of 5 mg/ml, followed by culture at 37° C. for 3 hours. Then, medium was eliminated and generated formazan crystal was dissolved in 500 μl of DMSO. The solution was aliquoted in a 96 well-plate and OD540 was measured. Cytotoxicity in the HepG2 cell line caused by chrysene was investigated. As a result, IC20 was 34.97 µM (see FIG. 1) and thus the concentration of chrysene for the further experiment was determined as the above.
# HepG2 cell line = assay: as above; settings: HepG2
# Procedure: as §1, §2
# HepG2 cells = assay: Quantitative real time RT-PCR of genes up- or down-regulated by chrysene
# Procedure: […]
# To investigate and quantify the expressions of those genes, primers which can specifically proliferate of those genes' mRNA (see Table 4) were prepared, and quantitative real time RT-PCR was performed using My IQ Real-time PCR (Bio-rad, USA). […] To quantify PCR product, SYBR Green I (Bio-rad, USA) staining was performed. SYBR Green I staining is based on binding to double stranded DNA, so that as double stranded DNA increases during PCR, fluorescence intensity increases. […]
compound,measurement,setting,value
c1ccc2c(c1)ccc1c3ccccc3ccc21 [chrysene],IC20 at 48 h,[1],35 µM
same,cytotoxicity in the human hepatoma cell line,HepG2 cell line,demonstrated cytotoxicity
same,expression profiles of 25 up-regulated genes and 10 down-regulated genes,HepG2 cells,consistent with the result of oligo-microarray
